Experimental data taken from patent US20220204473A1, “COMPOUND AS IRAK INHIBITOR” (SHANGHAI MEIYUE BIOTECH DEVELOPMENT CO., LTD., priority 2018, published 2022).
Read-outs that look alike come from different tables or passages of the source.

Tests used:
[1] = tested on: TNF-α release in LPS-induced Balb/c female mice; experiment: Inhibition of TNF-α release in LPS-induced Balb/c female mice; assay type: in vivo, mouse; parameters: concentration or dose not given beside the values; conditions: oral gavage 5 h before LPS induction, serum 1.5 h after stimulation
Method: In the normal control groups, the animals received an intraperitoneal injection of normal saline (10 mL/kg) and in the model groups, the animals received LPS stimulation (Sigma CAT #L2630, i.p., 10 mL/kg, 0.2 mg/kg). During the assay, to the test compounds, DMSO, Solutol and 10 mM PBS were sequentially added to prepare a solution or suspension of required concentration for administration. For the vehicle, DMSO, Solutol and 10 mM PBS were mixed in a volume ratio of 5:15:80. In each of the groups, the animals were administered through oral gavage (10 mL/kg) 5 h before LPS (or saline) stimulation at predetermined doses, and euthanized with CO2 at 1.5 h after the stimulation for cardiac blood collection. The whole blood was not anticoagulated, incubated in wet ice for 1.5 h, and centrifuged at 2000×g at 4° C. for 10 min to separate the serum. The serum was frozen at −80° C. for TNF-α assay. Quantification of the TNF-α was done with TNF-α ELISA kit according to the manufacturer's instruction.

human IRAK4 = molecular target: T1, human IRAK4 (Homo sapiens, UniProt Q9NWZ3); experiment: IRAK4 MSA (Mobility-Shift Assay) at Km ATP; assay type: biochemical; conditions: GST-IRAK4 1 nM, ATP 37 μM (Km); read-out: IC50 for inhibiting human IRAK4 kinase
T1 construct: purchased Cama (so in the source)
T1 sequence (Q9NWZ3 1-460): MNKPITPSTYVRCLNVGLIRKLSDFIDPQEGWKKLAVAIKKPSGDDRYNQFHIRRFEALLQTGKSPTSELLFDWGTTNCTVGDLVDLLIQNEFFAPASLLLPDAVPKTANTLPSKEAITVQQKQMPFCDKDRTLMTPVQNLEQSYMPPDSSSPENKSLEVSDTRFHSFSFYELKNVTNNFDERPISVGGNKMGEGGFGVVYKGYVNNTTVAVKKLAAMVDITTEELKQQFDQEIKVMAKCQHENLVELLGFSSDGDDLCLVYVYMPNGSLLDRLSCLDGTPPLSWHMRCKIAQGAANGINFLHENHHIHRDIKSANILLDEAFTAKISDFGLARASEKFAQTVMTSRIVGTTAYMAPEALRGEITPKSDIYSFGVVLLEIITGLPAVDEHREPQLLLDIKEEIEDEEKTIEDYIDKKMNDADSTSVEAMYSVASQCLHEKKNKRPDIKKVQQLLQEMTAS
Method: A recombinant fusion protein of N-terminal GST (glutathione-S-transferase) and human IRAK4 was used as enzyme (GST-IRAK4, kinase IRAK4 (Cama)) at a final concentration of 1 nM; ATP (Sigma) was at a final concentration of 37 μM; the substrates used for the kinase reaction were a 5-FAM (5-carboxyfluorescein)-labeled polypeptide (5-FAM-[…]-COOH) and a substrate peptide FAM-P8 (GL Biochem) at final concentrations of […].
In this assay, 500 μM solutions of the compounds were prepared in 100% DMSO, and serially 4-fold diluted to the 10th concentration gradient with 100% DMSO, followed by a 10-fold dilution in the compound buffer (50 mM HEPES. pH 7.5, 0.00015% Brij-35) to give intermediate dilutions of the compounds at a final concentration of 10 μM-0.04 nM containing 10% DMSO respectively, 5 μL of the dilutions were transferred into a black 384-well plate respectively.
IRAK4 was diluted to 2.5 nM in the kinase buffer (50 mM HEPES, pH 7.5, 0.00015% Brij-35, 2 mM DTT). 10 μL of the IRAK4 dilution was transferred to the 384-well plate and co-incubated with the compound for 10-15 min.
The substrate and ATP were diluted to 12.5 μM and 92.5 μM with reaction buffer (50 mM HEPES, pH 7.5, 0.00015% Brij-35, 10 mM MgCl2), respectively. 10 μL of the dilutions were transferred to a 384-well plate and incubated at 28° C. for 1 h respectively. The reaction was terminated by adding 25 μL of 50 mM EDTA to the 384-well plate.
The inhibition rates of IRAK4 by the compounds were calculated by measuring the rate of phosphorylated substrate using a Caliper EZ Reader (PerkinElmer) and the IC50 values were calculated by XL-fit software.

[2] = PK assay in rat (intravenous injection and oral gavage); assay type: in vivo; conditions: plasma, male SD rat; for Cmax: read-out: Peak concentration Cmax; for AUC(0-t): read-out: Area under curve AUC0-t; for AUC(0-inf): read-out: Area under curve AUC0-∞; for MRT: read-out: Average retention time MRT; for half-life: read-out: Half life t1/2 (converted)
Method: The rats used for pharmacokinetic study in the example were male SPF-grade SD rats (B&K Universal, Shanghai).
Route of administration: a single dose by oral gavage or intravenous injection
Sampling points: 0.083 h, 0.25 h, 0.5 h, 1 h, 2 h, 4 h, 6 h, 8 h and 24 h after administration
Sample processing: 0.2 mL of venous blood was collected, and let stand on ice before centrifugation to separate plasma (centrifugation conditions: 8000 rpm, 6 min, 4° C.). The separated plasma was stored at −80° C. before analysis.
Internal standard working solution: An appropriate amount of tolbutamide internal standard stock solution at 645,000 ng/mL was added into a volumetric flask, and was diluted to the volume with methanol. The solution was well mixed to give an internal standard working solution with a concentration of 50 ng/mL.
Sample pretreatment: 50 μL of plasma was added into a 1.5-mL centrifuge tube, and added with 250 μL of internal standard solution (methanol of the same volume for the blank control). The solution was well mixed by vortex, and centrifuged for 5 min at 14000 rpm. 200 μL of the supernatant was transferred into a 96-well sample feeding plate, and loaded onto a LC-MS/MS system.
Column: ACQUITY UPLC BEH C18 1.7 μm (50 mm×2.10 mm)
Mobile phase: A: 0.1% aqueous formic acid; B: 0.1% formic acid in acetonitrile
The data processing system was Analyst software (Applied Biosystems, USA, ver 1.5.5).

[3] = 1 mg/kg, intravenous injection, 1 mpk
[4] = 2 mg/kg, oral administration, 2 mpk, 5% DMSO + 15% Solutol + 80% Saline

Row | SMILES | IC50 (human IRAK4) [nM] | further results
1 | COc1cc2nn(C3CC(O)C3)cc2cc1NC(=O)c1cccc(C(F)(F)F)n1 (centres unmarked) [MY-004-084] | 9.5 | –
2 | COc1cc2nn([C@H]3C[C@H](C(=O)OC)C3)cc2cc1NC(=O)c1cccc(C(F)(F)F)n1 [MY-004-100] | 11 | –
3 | COc1cc2nn([C@H]3C[C@H](C(C)(C)O)C3)cc2cc1NC(=O)c1cccc(F)n1 [MY-004-119] | 14 | –
4 | COc1cc2nn([C@H]3C[C@@H](C(=O)OC)C3)cc2cc1NC(=O)c1cccc(C(F)(F)F)n1 [MY-004-099] | 35 | –
5 | CC(C)(O)[C@H]1C[C@H](n2cc3cc(NC(=O)c4cccc(C(F)(F)F)n4)c(-n4cc(C#N)cn4)cc3n2)C1 [MY-004-229] | 8.4 | –
6 | COc1cc2nn(C3CC(CO)C3)cc2cc1NC(=O)c1cccc(C(F)(F)F)n1 (centres unmarked) [MY-004-090] | 12.3 | –
7 | COc1cc2nn(C3CC(C)(O)C3)cc2cc1NC(=O)c1cccc(C(F)(F)F)n1 (centres unmarked) [MY-004-128] | 6.6 | –
8 | CC(C)(O)[C@H]1C[C@H](n2cc3cc(NC(=O)c4cccc(C(F)(F)F)n4)c(-c4ccccn4)cc3n2)C1 [MY-004-146] | 6.4 | –
9 | CC(C)(O)c1cc2nn([C@H]3CC[C@@H](O)CC3)cc2cc1NC(=O)c1cccc(C(F)(F)F)n1 [MY-004-326] | 6.9 | –
10 | COc1cc2nn(CCN3CC(F)(F)C3)cc2cc1NC(=O)c1cccc(C(F)(F)F)n1 [MY-004-017] | 36 | –
11 | CC(C)(O)c1cc2nn([C@H]3C[C@H](C(C)(C)O)C3)cc2cc1NC(=O)c1cccc(C#N)n1 [MY-004-110] | 48 | –
12 | CN(C)c1cc2nn([C@H]3C[C@H](C(C)(C)O)C3)cc2cc1NC(=O)c1cccc(F)n1 [MY-004-118] | 16.7 | –
13 | COc1cc2nn([C@H]3C[C@H](C(C)(C)O)C3)cc2cc1NC(=O)c1cnc2ccccc2n1 [MY-004-094] | 41 | –
14 | COc1cc2nn([C@H]3C[C@H](C(C)(C)O)C3)cc2cc1NC(=O)c1cccc(C)n1 [MY-004-093] | 13 | –
15 | COc1cc2nn(C3CC(OC)C3)cc2cc1NC(=O)c1cccc(C(F)(F)F)n1 (centres unmarked) [MY-004-168] | 6.3 | –
16 | COc1cc2nn([C@H]3C[C@@H](C(C)(C)O)C3)cc2cc1NC(=O)c1cccc(C(F)(F)F)n1 [MY-004-040] | 13 | –
17 | O=C(Nc1cc2cn([C@H]3CC[C@@H](O)CC3)nc2cc1OCC1CC1)c1cccc(C(F)(F)F)n1 [MY-004-218] | 5.1 | –

Second part, led by results:

Row | IC50 (human IRAK4) [nM] | SMILES | further results
18 | 1.6 | CN(C)c1cc2nn([C@H]3CC[C@@H](O)CC3)cc2cc1NC(=O)c1cccc(C(F)(F)F)n1 [MY-004-154] | Inhibition rate of TNF-α [1]: 87.82%
19 | 2 | C[C@]1(O)CC[C@H](n2cc3cc(NC(=O)c4cccc(C(F)(F)F)n4)c(-n4cccn4)cc3n2)CC1 [MY-004-228] | Inhibition rate of TNF-α [1]: 88.46%
20 | 5 | COc1cc2nn([C@H]3C[C@H](CO)C3)cc2cc1NC(=O)c1cccc(C(F)(F)F)n1 [MY-004-082] | Cmax ([2]; 1 mg/kg, intravenous injection, 1 mpk, 5% DMSO + 15% Solutol + 80% Saline): 1320 ng/mL; AUC(0-t) [2, 3]: 790 ng·h/mL; AUC(0-inf) [2, 3]: 793 ng·h/mL; MRT [2, 3]: 31.2 min; clearance ([2]; 1 mg/kg, intravenous injection, 1 mpk, read-out: Clearance CL): 21.9 mL/min/kg; half-life [2, 3]: 30.6 min; Vd ([2]; 1 mg/kg, intravenous injection, 1 mpk, read-out: Volume of distribution at steady state VZ): 0.93 L/kg; AUC(0-t) [2, 4]: 416 ng·h/mL; AUC(0-inf) [2, 4]: 424 ng·h/mL; MRT [2, 4]: 161 min; bioavailability ([2]; 2 mg/kg, oral administration, 2 mpk, 5% DMSO + 15% Solutol + 80% Saline, read-out: Bioavailability F): 26.3%; half-life [2, 4]: 65.4 min; Cmax [2, 4]: 114 ng/mL; Tmax ([2]; 2 mg/kg, oral administration, 2 mpk, 5% DMSO + 15% Solutol + 80% Saline, read-out: Time to peak tmax): 30 min
21 | 2.2 | O=C(Nc1cc2cn([C@H]3CC[C@H](O)CC3)nc2cc1OCC1CC1)c1cccc(C(F)(F)F)n1 [MY-004-217] | –
22 | 2.7 | CN(C)c1cc2nn([C@H]3CC[C@](C)(O)CC3)cc2cc1NC(=O)c1cccc(C(F)(F)F)n1 [MY-004-167] | –
23 | 4.3 | COc1cc2nn([C@H]3CC[C@@H](O)CC3)cc2cc1NC(=O)c1cccc(C(F)(F)F)n1 [MY-004-127-2] | –
24 | 1.7 | C[C@]1(O)CC[C@@H](n2cc3cc(NC(=O)c4cccc(C(F)(F)F)n4)c(-n4cccn4)cc3n2)CC1 [MY-004-227] | –
25 | 2.4 | CC(C)(O)c1cc2nn([C@H]3CC[C@H](O)CC3)cc2cc1NC(=O)c1cccc(C(F)(F)F)n1 [MY-004-322] | –
